Measured values taken from ChEMBL document CHEMBL1201862, “PubChem BioAssay data set” (2004).
Activity calls are given as the source filed them.

How the values were obtained:
Saccharomyces cerevisiae = test: S. cerevisiae Caspase-1/ASC signal blockers IC50, NALP1 inhibitor project selectivity test (AID 488863); format: functional, organism-based
[1] = target: T1, NACHT, LRR and PYD domains-containing protein 1 (Homo sapiens, UniProt Q9C000); test: NALP1 inhibitors in yeast, dose response, luminescent (AID 488860); format: functional
T1 sequence (Q9C000 whole entry): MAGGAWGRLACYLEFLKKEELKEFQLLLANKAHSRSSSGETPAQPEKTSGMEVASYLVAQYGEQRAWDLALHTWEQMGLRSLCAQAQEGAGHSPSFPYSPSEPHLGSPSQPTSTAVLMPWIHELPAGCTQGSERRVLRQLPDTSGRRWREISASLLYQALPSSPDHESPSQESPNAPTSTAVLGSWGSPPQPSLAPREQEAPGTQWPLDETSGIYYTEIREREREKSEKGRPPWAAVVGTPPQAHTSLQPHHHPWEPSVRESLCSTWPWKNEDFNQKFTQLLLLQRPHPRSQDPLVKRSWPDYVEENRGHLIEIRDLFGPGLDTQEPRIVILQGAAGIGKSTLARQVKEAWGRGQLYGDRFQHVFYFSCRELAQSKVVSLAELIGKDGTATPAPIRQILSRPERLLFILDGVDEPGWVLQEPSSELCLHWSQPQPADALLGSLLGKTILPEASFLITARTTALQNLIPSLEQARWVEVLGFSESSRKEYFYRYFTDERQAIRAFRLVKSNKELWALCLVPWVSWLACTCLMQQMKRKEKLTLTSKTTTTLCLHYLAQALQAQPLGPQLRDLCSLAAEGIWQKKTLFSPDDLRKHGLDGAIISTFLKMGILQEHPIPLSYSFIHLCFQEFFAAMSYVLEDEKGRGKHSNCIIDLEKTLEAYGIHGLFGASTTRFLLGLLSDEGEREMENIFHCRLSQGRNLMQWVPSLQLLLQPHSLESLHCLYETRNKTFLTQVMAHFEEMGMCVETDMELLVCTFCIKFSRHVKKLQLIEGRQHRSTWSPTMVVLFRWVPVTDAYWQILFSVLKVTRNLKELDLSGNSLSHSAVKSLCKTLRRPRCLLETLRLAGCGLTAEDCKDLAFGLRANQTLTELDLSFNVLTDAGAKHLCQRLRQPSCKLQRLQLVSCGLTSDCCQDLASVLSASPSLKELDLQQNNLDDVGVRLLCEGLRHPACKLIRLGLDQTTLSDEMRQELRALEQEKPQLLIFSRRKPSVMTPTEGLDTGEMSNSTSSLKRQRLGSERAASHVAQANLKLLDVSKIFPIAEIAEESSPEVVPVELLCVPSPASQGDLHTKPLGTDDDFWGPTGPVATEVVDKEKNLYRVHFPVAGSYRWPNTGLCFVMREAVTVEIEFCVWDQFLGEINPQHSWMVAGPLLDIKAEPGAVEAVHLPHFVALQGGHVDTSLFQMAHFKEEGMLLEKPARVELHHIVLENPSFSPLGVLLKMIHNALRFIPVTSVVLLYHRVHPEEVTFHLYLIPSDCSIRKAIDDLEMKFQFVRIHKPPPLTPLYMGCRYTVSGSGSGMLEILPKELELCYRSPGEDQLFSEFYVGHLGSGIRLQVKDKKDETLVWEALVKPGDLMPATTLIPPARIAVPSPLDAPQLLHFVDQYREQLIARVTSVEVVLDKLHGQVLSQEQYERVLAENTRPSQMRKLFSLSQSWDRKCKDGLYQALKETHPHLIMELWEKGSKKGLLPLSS

[2] = target: T2, Replicative DNA helicase DnaB (Mycobacterium tuberculosis, UniProt P9WMR3); test: DnaB intein splicing inhibitors, dose response, biochemical, cell-free fluorescence (AID 449749); format: functional
T2 sequence (P9WMR3 whole entry): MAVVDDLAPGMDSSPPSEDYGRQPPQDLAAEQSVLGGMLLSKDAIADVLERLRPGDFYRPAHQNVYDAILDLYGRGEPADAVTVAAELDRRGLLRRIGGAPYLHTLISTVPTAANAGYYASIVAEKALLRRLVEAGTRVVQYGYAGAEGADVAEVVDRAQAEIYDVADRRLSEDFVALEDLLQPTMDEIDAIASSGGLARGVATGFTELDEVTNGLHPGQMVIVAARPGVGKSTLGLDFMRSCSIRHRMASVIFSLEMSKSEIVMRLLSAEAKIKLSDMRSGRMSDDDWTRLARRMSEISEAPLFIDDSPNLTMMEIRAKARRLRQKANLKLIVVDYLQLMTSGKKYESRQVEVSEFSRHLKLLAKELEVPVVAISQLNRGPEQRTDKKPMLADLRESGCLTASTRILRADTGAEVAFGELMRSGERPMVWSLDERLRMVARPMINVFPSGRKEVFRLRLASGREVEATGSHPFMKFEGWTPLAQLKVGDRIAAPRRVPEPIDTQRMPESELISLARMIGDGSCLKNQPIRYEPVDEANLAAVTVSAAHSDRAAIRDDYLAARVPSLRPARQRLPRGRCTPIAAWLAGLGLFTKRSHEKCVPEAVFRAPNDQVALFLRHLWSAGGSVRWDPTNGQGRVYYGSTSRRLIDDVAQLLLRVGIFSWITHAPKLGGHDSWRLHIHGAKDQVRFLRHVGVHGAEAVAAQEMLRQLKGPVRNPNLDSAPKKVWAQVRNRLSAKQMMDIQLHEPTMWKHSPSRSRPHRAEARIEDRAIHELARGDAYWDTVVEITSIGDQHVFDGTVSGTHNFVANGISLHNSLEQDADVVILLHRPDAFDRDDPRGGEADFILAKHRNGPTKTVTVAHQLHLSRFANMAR

Protein RecA = target: T3, Protein RecA (Mycobacterium tuberculosis, UniProt P9WHJ3); test: Fluorescence Cell-Free Homogeneous Dose Retest to Identify Inhibitors of RecA-Intein Splicing Activity. [Related pubchem assays (depositor defined):AID2097, AID2223, AID489010, AID492950]; format: functional
T3 sequence (P9WHJ3 whole entry): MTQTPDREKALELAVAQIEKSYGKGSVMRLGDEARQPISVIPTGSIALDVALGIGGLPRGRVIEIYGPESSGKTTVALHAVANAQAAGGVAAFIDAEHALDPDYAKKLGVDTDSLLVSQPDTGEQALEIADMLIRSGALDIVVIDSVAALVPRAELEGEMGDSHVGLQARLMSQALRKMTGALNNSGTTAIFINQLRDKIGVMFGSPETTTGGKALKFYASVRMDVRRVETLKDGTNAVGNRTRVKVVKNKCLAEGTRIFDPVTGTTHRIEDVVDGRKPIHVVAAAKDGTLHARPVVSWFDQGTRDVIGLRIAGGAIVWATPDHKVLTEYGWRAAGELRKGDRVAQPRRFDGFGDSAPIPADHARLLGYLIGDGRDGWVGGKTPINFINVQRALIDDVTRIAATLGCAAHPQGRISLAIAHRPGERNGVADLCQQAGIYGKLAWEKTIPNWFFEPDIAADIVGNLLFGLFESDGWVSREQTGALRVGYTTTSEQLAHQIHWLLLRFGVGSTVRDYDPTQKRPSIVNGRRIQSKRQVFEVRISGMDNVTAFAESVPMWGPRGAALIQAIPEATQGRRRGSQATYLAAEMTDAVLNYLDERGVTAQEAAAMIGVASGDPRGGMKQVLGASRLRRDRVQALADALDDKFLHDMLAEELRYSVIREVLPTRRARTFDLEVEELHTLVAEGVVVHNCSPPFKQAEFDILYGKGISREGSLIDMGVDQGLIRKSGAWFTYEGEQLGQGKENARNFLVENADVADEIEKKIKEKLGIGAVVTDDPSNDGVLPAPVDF

[3] = Mcl1-dependent cancer cell viability – HMC-1-8 cells, luminescence, dry powder, selectivity assay for A1 inhibitor project, dose response (AID 504415); format: functional, cell-based; details: Homo sapiens
[4] = target: Protein disulfide-isomerase (Homo sapiens, UniProt P07237); test: inhibition of PDI-driven insulin aggregation – biochemical, turbidity, absorbance, cherry-picked samples, dose response (AID 602350); format: functional
Chain of Protein disulfide-isomerase (P07237 whole entry): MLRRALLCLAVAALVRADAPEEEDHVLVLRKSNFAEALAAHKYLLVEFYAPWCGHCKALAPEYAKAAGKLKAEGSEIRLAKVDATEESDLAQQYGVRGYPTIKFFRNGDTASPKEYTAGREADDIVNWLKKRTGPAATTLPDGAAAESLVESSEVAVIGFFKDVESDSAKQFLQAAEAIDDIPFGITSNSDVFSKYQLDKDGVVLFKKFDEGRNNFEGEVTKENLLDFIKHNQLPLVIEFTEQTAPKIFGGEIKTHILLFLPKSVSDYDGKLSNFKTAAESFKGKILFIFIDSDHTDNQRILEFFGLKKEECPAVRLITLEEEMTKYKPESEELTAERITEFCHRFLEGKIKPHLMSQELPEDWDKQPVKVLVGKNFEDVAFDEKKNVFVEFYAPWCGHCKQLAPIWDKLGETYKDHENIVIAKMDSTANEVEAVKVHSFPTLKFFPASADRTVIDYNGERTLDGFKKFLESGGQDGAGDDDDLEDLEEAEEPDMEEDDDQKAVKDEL

[5] = target: DNA dC->dU-editing enzyme APOBEC-3G (Homo sapiens, UniProt Q9HC16); test: inhibition of APOBEC3G ssDNA deamination – biochemical, fluorescence, single-stranded DNA substrate, SAR follow-up (AID 602136); format: functional; details: read-out: IC50_Mean
Chain of DNA dC->dU-editing enzyme APOBEC-3G (Q9HC16 whole entry): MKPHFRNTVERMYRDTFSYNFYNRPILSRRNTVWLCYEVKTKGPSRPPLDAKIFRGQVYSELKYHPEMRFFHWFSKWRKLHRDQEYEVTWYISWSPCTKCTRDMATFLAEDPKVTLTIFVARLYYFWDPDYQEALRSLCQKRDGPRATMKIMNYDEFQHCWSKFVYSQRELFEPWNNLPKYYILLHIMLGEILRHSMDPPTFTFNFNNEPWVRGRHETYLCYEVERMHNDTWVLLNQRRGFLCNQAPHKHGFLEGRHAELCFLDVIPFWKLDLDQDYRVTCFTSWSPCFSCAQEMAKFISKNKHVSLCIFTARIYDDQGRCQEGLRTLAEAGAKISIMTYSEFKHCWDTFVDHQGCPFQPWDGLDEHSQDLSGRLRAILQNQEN

[6] = target: DNA dC->dU-editing enzyme APOBEC-3A (Homo sapiens, UniProt P31941); test: SAR analysis of small molecule inhibitors of APOBEC3A DNA Deaminase via a fluorescence-based single-stranded DNA deaminase assay.; format: functional; details: read-out: IC50_Mean
Chain of DNA dC->dU-editing enzyme APOBEC-3A (P31941 whole entry): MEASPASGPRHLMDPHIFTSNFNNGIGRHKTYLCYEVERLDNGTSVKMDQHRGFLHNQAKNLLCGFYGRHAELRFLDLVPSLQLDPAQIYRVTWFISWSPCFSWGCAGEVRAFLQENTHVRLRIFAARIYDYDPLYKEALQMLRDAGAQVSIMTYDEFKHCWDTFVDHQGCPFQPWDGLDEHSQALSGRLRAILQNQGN

[7] = target: Sphingosine 1-phosphate receptor 2 (Homo sapiens, UniProt O95136); test: Late-stage fluorescence-based dose-response cell-based counterscreen assay to identify agonists of the Sphingosine 1-Phosphate Receptor 3 (S1P3): Sphingosine 1-Phosphate Receptor 2 (S1P2) agonist assay.; format: functional
Chain of Sphingosine 1-phosphate receptor 2 (O95136 whole entry): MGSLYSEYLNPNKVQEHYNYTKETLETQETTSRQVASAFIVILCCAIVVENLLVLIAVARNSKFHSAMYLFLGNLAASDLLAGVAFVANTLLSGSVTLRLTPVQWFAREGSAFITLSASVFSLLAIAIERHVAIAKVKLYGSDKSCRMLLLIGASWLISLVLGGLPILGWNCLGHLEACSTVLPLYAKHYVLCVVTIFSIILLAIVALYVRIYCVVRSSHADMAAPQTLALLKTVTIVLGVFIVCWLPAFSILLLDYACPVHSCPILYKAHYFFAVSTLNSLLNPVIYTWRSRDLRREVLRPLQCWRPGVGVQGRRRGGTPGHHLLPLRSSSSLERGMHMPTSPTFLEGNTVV

[8] = target: T4, Sphingosine 1-phosphate receptor 4 (Homo sapiens, UniProt O95977); test: Late-stage fluorescence-based dose-response cell-based counterscreen assay to identify agonists of the Sphingosine 1-Phosphate Receptor 3 (S1P3): Sphingosine 1-Phosphate Receptor 4 (S1P4) agonist assay.; format: functional
T4 sequence (O95977 whole entry): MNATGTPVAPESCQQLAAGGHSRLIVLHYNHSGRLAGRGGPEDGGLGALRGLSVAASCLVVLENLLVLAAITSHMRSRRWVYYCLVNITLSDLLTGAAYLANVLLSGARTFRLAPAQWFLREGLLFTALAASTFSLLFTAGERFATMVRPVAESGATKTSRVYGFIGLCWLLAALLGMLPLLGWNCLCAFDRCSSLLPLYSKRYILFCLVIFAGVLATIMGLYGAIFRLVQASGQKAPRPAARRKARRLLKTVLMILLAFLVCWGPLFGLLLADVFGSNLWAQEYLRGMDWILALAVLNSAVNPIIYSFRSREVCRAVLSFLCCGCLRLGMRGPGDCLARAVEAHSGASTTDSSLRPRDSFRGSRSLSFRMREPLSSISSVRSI

[9] = target: Cell division cycle 7-related protein kinase (Homo sapiens, UniProt O00311); format: functional;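 also: value obtained from a kinome-wide kinase panel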
Chain of Cell division cycle 7-related protein kinase (O00311 whole entry): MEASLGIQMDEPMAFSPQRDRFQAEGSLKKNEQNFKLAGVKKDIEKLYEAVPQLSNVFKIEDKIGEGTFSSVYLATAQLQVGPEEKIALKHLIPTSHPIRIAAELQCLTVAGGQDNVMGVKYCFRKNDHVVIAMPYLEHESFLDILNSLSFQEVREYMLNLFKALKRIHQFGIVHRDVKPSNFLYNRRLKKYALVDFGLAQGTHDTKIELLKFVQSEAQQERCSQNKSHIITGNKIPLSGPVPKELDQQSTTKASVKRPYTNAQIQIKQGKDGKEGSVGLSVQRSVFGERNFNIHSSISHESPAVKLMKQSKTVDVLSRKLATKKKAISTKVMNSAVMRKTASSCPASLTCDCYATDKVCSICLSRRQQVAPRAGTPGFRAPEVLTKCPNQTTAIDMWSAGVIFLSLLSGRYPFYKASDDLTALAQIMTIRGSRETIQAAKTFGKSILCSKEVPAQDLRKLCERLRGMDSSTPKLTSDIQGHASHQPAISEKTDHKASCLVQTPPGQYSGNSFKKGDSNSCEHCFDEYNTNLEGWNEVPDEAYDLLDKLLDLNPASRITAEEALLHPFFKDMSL

[10] = target: Cyclin-dependent kinase 19 (Homo sapiens, UniProt Q9BWU1); test: Navigating the Kinome. Panel member name: CDC2L6; format: functional
Chain of Cyclin-dependent kinase 19 (Q9BWU1 whole entry): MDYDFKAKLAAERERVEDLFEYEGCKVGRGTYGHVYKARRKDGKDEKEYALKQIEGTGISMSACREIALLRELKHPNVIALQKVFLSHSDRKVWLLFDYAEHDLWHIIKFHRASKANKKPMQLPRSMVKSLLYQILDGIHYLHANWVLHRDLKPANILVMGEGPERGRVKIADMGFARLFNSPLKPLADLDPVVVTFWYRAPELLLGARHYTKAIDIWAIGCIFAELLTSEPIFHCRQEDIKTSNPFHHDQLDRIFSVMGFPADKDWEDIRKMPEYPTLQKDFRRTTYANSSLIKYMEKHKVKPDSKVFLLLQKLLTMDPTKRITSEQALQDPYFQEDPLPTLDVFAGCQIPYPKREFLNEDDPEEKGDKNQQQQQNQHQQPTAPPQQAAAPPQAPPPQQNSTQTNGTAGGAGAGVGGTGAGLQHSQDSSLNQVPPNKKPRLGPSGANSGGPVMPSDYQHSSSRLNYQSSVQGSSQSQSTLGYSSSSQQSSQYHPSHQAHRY

## Cn1c(=O)c([N+](=O)[O-])c(-n2cnc3ccccc32)c2ccccc21
Saccharomyces cerevisiae
  IC50: 72.3 µM (active)
[1]
  IC50: > 100 µM (inactive)
[2]
  AC50: 8.12 µM (active)
Protein RecA
  EC50: 7.26 µM (active)
[3]
  AC50: 69.6 µM (active)

## Cc1ccc2nc(N3CCN(Cc4nnnn4C4CCCC4)CC3)c(C#N)cc2c1
[4]
  AC50: 4.05 µM (active)

## Nc1nc2sc3c(c2c2nnc(SCc4ccc(Cl)cc4)n12)CCCC3
[5]
  IC50: > 99 µM (inactive)
[6]
  IC50: > 99 µM (inactive)

## O=C(c1noc2ccccc12)N(C1CCCCC1)C1CCCCC1
[7]
  EC50: > 50 µM (inactive)
[8]
  EC50: > 50 µM (inactive)

## O=c1nc(-c2ccccc2)cc(-c2ccncc2)[nH]1
[9]
  Ki: 0.158 µM (active)
[10]
  Ki: > 100 µM (inactive)
